# Calls of active or inactive are those of the source.
# Tests used:
# Integrin alpha-L = Integrin alpha-L (Mus musculus, UniProt P24063); assay: modulators of CD8 T cell-vesicle binding, dose response, powder samples, mouse 2C CD8+ cells (AID 504565); type: functional
# HEK293 [1] = assay: NOD2 signaling inhibitors in MDP-stimulated cells, cell-based, uHTS, luminescence (AID 2001); type: functional; details: Homo sapiens
# BJ [2] = assay: cells; type: functional, cell-based; details: Homo sapiens
# HEK293 [3] = assay: cells; type: functional, cell-based; details: Homo sapiens
# Protein RecA = target: T1, Protein RecA (Mycobacterium tuberculosis, UniProt P9WHJ3); assay: Fluorescence Cell-Free Homogeneous Dose Retest to Identify Inhibitors of RecA-Intein Splicing Activity. [Related pubchem assays (depositor defined):AID2097, AID2223, AID489010, AID492950]; type: functional
# T1 sequence (P9WHJ3 whole entry): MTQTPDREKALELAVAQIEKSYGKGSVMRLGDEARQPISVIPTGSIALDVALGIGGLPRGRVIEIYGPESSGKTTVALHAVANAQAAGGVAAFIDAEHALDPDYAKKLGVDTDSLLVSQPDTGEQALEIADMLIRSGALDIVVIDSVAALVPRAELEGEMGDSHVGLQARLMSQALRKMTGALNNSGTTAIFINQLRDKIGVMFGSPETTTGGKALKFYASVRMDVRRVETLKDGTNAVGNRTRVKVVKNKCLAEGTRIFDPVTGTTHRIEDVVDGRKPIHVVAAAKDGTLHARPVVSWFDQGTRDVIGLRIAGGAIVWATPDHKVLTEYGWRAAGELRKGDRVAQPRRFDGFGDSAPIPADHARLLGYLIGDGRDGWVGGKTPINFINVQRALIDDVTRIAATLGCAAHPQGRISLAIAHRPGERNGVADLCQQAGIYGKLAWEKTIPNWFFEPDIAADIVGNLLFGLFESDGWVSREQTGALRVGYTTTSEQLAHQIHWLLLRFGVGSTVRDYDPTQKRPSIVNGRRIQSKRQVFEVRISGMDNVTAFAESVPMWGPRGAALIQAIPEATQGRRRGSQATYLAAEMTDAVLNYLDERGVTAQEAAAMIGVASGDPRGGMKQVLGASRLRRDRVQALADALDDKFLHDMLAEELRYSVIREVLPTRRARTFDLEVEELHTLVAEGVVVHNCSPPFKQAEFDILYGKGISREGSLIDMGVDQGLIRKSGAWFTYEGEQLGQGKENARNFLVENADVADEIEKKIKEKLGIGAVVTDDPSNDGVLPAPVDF
# [4] = target: T2, Replicative DNA helicase DnaB (Mycobacterium tuberculosis, UniProt P9WMR3); assay: DnaB intein splicing inhibitors, dose response, biochemical, cell-free fluorescence (AID 449749); type: functional
# T2 sequence (P9WMR3 whole entry): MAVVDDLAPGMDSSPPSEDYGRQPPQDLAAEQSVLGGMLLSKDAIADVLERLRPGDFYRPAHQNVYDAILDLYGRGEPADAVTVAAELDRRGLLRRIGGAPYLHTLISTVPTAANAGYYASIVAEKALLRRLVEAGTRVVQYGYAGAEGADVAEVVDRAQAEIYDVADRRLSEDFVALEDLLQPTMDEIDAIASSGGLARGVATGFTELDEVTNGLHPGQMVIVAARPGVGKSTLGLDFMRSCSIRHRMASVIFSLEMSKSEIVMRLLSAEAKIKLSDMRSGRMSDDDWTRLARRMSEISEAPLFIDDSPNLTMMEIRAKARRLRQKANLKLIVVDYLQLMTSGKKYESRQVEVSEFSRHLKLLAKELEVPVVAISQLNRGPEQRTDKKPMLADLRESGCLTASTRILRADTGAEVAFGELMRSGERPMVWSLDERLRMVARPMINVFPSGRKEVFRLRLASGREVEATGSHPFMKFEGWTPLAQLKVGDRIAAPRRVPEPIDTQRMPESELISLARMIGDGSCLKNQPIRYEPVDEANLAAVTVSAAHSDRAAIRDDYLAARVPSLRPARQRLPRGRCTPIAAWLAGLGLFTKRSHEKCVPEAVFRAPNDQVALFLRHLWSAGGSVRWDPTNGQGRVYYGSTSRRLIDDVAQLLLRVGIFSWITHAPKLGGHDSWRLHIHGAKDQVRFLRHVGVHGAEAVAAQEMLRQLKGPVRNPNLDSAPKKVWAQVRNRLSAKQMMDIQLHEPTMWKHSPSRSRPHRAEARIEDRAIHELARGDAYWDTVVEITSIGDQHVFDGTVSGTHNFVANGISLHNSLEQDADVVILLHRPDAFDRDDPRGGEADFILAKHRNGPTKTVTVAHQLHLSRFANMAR
# [5] = DRD fibroblast viability loss – cell-based, non-viral oncogenic, luminescence, dose response (AID 1934); type: functional; details: Homo sapiens
# BJ [6] = assay: BJ-TERT fibroblast viability loss – cell-based, RAS-independent, luminescence, dose response (AID 1933); type: functional; details: Homo sapiens
# HEK293 [7] = assay: cells; type: functional, cell-based; details: Homo sapiens; remark: listed apart in the source
# [8] = target: Nucleotide-binding oligomerization domain-containing protein 2 (Homo sapiens, UniProt Q9HC29); assay: inhibition of NOD2-driven NF-kB reporter – cell-based, luminescence, uHTS, HEK293 (AID 1566); type: functional
# Sequence of Nucleotide-binding oligomerization domain-containing protein 2 (Q9HC29 whole entry, the tested form may be a part): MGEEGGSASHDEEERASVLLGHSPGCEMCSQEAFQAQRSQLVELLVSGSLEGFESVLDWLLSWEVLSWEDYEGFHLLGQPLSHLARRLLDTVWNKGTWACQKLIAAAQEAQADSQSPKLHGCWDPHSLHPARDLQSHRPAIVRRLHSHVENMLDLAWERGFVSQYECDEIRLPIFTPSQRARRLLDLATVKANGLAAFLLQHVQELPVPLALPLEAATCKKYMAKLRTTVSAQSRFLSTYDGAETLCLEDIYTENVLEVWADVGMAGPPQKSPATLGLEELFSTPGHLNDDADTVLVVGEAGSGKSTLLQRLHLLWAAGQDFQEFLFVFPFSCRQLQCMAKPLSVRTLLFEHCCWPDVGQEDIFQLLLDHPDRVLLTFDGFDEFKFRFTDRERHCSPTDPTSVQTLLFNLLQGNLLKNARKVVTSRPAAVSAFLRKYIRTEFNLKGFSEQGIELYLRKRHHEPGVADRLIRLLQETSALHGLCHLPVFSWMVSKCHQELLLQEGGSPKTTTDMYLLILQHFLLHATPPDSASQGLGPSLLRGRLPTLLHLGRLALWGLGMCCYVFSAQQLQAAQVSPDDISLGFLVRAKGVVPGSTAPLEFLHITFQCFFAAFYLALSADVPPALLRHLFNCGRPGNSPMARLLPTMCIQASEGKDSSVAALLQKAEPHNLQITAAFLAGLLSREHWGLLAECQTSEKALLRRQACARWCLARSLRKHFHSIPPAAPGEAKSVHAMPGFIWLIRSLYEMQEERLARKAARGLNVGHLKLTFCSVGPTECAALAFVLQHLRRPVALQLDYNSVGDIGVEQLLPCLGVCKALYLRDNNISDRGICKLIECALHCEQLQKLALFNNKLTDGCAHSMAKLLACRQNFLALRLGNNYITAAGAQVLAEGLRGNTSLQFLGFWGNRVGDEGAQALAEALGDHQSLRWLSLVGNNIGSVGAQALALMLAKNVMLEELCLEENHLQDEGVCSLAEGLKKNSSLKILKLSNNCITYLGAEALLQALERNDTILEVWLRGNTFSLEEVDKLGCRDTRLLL
# [9] = target: DNA damage-inducible transcript 3 protein (Mus musculus, UniProt P35639); type: functional, Cricetulus griseus
# Sequence of DNA damage-inducible transcript 3 protein (P35639 whole entry): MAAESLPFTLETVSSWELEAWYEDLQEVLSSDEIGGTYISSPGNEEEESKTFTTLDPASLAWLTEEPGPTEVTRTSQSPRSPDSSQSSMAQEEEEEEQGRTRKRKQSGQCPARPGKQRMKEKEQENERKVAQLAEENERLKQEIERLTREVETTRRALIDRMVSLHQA
# [10] = target: T3, Microphthalmia-associated transcription factor (Homo sapiens, UniProt O75030); assay: reducers of TRPM1 reporter luminescence, concentration series – cell-based, SK-MEL-5, cherry-picked, set 3, MITF inhibitor project, dose response (AID 493073); type: functional;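 also: SK-MEL-5 melanoma cells with luciferase driven by the MITF target TRPM1 promoter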
# T3 sequence (O75030 whole entry): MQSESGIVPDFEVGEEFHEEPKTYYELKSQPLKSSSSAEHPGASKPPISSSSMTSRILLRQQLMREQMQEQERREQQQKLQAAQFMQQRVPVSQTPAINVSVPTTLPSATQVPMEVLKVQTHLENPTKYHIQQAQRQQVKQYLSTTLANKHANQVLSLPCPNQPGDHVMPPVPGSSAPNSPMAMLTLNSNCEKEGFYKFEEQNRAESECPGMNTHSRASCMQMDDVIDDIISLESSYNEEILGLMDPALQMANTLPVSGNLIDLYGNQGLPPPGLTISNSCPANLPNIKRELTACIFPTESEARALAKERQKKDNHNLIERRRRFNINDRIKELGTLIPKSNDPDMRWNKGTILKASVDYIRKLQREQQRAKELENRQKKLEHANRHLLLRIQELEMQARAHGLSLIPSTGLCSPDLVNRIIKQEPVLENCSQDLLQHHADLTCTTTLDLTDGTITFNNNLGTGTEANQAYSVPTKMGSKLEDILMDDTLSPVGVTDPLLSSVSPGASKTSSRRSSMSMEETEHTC
# HEK293 [11] = assay: cells; type: functional, cell-based; details: Homo sapiens; remark: listed apart in the source
# [12] = microbe, parasite or virus in culture; type: functional; details: Mycobacterium tuberculosis
# BJ [13] = assay: BJ-TERT-LT-ST fibroblast viability loss – cell-based, RAS-independent, luminescence, dose response (AID 1935); type: functional; details: Homo sapiens;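 also: BJ fibroblasts immortalized with TERT plus LT and ST oncogenes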
# HEK293 [14] = assay: inhibition of NOD1-driven NF-kB reporter – cell-based, luminescence, uHTS, primary screen (AID 1578); type: functional; details: Homo sapiens
# [15] = target: Tyrosine-protein phosphatase non-receptor type 5 (Homo sapiens, UniProt P54829); assay: PTPN5 enzyme inhibition – biochemical, fluorescence intensity, uHTS hits, confirmation (AID 602372); type: functional; details: read-out: IC50_Mean
# Sequence of Tyrosine-protein phosphatase non-receptor type 5 (P54829 whole entry): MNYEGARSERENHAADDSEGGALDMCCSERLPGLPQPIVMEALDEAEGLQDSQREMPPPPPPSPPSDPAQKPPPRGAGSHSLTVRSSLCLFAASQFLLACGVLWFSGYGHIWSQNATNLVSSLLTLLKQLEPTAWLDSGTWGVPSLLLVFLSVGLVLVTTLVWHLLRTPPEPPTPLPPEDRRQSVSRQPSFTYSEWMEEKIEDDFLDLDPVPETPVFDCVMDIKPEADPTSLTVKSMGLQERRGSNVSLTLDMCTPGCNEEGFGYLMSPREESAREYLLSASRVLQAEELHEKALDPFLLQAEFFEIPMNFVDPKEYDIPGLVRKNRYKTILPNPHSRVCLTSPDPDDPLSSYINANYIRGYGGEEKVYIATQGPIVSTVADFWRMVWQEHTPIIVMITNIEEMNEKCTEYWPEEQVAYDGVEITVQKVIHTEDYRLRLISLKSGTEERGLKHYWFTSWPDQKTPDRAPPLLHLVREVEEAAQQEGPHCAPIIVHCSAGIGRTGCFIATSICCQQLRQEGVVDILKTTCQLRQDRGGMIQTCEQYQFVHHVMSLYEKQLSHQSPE
# [16] = target: Tyrosine-protein phosphatase non-receptor type 11 (Homo sapiens, UniProt Q06124); assay: PTPN11 enzyme inhibitors – biochemical, selectivity assay for STEP inhibitor project, dose response (AID 602367); type: functional; details: read-out: IC50_Mean
# Sequence of Tyrosine-protein phosphatase non-receptor type 11 (Q06124 whole entry): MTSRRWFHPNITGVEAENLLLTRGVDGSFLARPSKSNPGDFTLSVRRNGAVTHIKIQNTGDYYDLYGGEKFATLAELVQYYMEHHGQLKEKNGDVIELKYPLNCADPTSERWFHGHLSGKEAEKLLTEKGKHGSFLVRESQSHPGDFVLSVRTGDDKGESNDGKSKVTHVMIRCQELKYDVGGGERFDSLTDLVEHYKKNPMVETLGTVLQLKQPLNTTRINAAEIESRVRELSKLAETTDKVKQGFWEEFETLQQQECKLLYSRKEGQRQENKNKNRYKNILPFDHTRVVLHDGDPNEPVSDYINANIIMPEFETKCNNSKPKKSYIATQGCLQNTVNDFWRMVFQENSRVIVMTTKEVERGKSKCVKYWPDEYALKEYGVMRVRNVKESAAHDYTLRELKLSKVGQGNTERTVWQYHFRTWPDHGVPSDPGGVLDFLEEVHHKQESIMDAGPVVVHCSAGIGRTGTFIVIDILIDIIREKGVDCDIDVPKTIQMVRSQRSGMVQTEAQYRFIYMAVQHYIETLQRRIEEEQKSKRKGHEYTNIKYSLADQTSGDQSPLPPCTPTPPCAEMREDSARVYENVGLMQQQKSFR
# [17] = target: DNA dC->dU-editing enzyme APOBEC-3G (Homo sapiens, UniProt Q9HC16); type: functional;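 also: Dose-response counterscreen measuring inhibition of APOBEC3G DNA deaminase activity, run while confirming APOBEC3A inhibitors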
# Sequence of DNA dC->dU-editing enzyme APOBEC-3G (Q9HC16 whole entry): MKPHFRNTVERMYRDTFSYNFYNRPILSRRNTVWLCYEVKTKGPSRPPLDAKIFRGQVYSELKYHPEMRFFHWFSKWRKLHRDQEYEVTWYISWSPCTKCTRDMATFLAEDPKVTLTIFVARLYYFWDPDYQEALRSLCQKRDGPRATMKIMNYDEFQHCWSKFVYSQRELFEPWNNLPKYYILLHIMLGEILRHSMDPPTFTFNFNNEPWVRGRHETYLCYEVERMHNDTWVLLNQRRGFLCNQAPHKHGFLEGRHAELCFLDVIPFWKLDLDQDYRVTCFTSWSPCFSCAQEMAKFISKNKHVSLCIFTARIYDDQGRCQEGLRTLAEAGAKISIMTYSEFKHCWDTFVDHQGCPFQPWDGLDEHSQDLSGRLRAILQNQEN
# [18] = target: DNA dC->dU-editing enzyme APOBEC-3A (Homo sapiens, UniProt P31941); assay: Dose Response confirmation of small molecule APOBEC3A DNA Deaminase Inhibitors via a fluorescence-based single-stranded DNA deaminase assay. [Related pubchem assays (depositor defined):AID493011, AID493024]; type: functional
# Sequence of DNA dC->dU-editing enzyme APOBEC-3A (P31941 whole entry, the tested form may be a part): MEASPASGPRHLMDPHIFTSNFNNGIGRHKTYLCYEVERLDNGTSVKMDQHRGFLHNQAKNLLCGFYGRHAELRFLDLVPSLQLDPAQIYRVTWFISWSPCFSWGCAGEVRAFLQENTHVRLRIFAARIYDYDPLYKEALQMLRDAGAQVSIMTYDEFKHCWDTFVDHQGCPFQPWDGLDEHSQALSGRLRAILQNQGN
# [19] = target: T4, Carboxy-terminal domain RNA polymerase II polypeptide A small phosphatase 1 (Homo sapiens, UniProt Q9GZU7); assay: CTDSP1 inhibitors, concentration-response, biochemical, absorbance readout, ultra-high-throughput screen actives (AID 540297); type: functional
# T4 sequence (Q9GZU7 whole entry): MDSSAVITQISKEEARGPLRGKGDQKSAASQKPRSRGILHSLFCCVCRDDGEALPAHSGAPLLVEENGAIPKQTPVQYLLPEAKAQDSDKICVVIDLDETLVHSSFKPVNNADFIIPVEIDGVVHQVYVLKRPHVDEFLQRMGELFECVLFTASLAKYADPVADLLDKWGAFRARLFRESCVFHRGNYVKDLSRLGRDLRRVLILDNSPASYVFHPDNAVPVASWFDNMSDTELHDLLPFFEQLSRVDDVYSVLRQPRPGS
# [20] = target: Dual specificity protein phosphatase 3 (Homo sapiens, UniProt P51452); assay: VHR phosphatase inhibition, dose response, selectivity assay for STEP inhibitor project, biochemical (AID 602374); type: functional; details: read-out: IC50_Mean
# Sequence of Dual specificity protein phosphatase 3 (P51452 whole entry): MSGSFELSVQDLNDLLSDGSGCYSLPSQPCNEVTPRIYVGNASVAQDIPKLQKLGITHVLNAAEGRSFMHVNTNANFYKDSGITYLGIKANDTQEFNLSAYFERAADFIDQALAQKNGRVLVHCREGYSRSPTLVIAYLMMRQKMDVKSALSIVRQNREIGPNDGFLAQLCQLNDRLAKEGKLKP
# Sequence of Integrin alpha-L (P24063 whole entry): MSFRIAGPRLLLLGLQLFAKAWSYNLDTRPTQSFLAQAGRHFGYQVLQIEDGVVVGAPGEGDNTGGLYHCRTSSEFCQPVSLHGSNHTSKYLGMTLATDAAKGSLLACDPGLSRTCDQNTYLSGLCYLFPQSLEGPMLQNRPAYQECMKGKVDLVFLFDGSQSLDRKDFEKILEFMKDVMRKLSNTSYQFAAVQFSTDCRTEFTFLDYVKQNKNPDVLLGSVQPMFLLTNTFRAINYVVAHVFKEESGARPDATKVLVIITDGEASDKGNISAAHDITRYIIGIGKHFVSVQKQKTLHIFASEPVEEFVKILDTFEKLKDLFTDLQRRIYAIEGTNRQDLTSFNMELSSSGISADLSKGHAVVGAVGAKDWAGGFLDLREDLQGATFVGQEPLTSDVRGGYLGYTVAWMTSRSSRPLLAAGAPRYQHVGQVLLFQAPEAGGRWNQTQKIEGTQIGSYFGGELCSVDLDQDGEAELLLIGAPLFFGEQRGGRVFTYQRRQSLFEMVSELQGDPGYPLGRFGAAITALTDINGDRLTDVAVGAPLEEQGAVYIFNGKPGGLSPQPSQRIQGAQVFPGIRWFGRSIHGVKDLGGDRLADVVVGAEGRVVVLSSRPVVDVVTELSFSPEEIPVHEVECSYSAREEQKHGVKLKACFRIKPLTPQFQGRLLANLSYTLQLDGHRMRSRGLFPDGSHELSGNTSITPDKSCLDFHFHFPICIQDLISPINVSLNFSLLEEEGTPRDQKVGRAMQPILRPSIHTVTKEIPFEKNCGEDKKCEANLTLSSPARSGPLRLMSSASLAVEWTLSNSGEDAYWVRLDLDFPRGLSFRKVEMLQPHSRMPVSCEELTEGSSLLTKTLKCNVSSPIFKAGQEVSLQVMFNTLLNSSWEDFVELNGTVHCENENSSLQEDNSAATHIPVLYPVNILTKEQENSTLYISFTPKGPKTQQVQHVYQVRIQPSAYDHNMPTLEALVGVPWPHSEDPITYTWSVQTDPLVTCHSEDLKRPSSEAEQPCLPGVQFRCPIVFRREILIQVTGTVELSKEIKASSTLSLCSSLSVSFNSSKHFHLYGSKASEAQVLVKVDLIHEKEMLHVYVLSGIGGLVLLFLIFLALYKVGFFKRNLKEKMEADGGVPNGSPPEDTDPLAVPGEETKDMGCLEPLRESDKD
smiles,measurement,setting,value
O=C(COC(=O)C12CC3CC(CC(Br)(C3)C1)C2)Nc1cccc(S(=O)(=O)N2CCOCC2)c1,EC50,Integrin alpha-L,1.21 µM (active)
O=C(CCl)Nc1cn(-c2ccccc2)nc1-c1ccccc1,IC50,HEK293 [1],9.25 µM (active)
same,EC50,BJ [2],14.4 µM (active)
same,IC50,HEK293 [3],5.28 µM (active)
same,EC50,Protein RecA,6.32 µM (active)
same,AC50,[4],13.1 µM (active)
same,EC50,[5],16.2 µM (active)
same,EC50,BJ [6],8.36 µM (active)
same,IC50,HEK293 [7],> 20 µM (inactive)
same,EC50,[8],> 20 µM (inactive)
same,Absolute IC50 (CHOP),[9],10 µM
same,AC50,[10],14.5 µM (active)
same,IC50,HEK293 [11],> 20 µM (inactive)
same,CC50,[12],6.92 µM (active)
same,EC50,BJ [13],> 150 µM (inconclusive)
same,EC50,HEK293 [14],4.78 µM (active)
COc1cccc(N2[C@@H](CC(=O)O)c3ccc(/C=C/C(=O)O)cc3S2(=O)=O)c1,IC50,[15],52.1 µM (inactive)
same,IC50,[16],0.933 µM (active)
same,IC50,[17],41.2 µM (active)
same,IC50,[18],12.2 µM (active)
same,IC50,[19],2.88 µM (active)
same,IC50,[20],2.49 µM (active)

# Source: ChEMBL document CHEMBL1201862, “PubChem BioAssay data set” (2004)
